Test results from the NIST ThermoML archive (doi:10.1021/je049610v).

Tests used:
[1] = xn = mol fraction of the nth substance listed; conditions: 101 kPa, Liquid
[2] = refractive index (Na D-line) (dimensionless); xn = mol fraction of the nth substance listed; conditions: 101 kPa, Liquid

ClC(Cl)C(Cl)Cl [1,1,2,2-tetrachloroethane] + COc1ccccc1
Conditions	mass density, 298.15 K [kg/m3]	mass density, 303.15 K [kg/m3]	mass density, 308.15 K [kg/m3]	refractive index, 298.15 K	refractive index, 303.15 K	refractive index, 308.15 K	speed of sound, 298.15 K [m/s]	viscosity, 298.15 K [mPa·s]	viscosity, 303.15 K [mPa·s]	viscosity, 308.15 K [mPa·s]
[1], x2 = 0	1587.8	1580.6	1573.3	–	–	–	1153	1.591	1.471	1.361
[1], x2 = 0.1003	1526.3	1519.4	1512.6	–	–	–	1172	1.555	1.439	1.323
[1], x2 = 0.2021	1464.3	1457.7	1451.2	–	–	–	1193	1.518	1.404	1.29
[1], x2 = 0.303	1403.1	1396.9	1390.6	–	–	–	1214	1.47	1.362	1.253
[1], x2 = 0.3939	1348.3	1342.2	1336.2	–	–	–	1235	1.419	1.315	1.21
[1], x2 = 0.4986	1285.5	1279.9	1274	–	–	–	1262	1.355	1.255	1.155
[1], x2 = 0.5975	1226.5	1221.1	1215.6	–	–	–	1289	1.292	1.196	1.1
[1], x2 = 0.6972	1167.2	1162.1	1156.9	–	–	–	1317	1.224	1.131	1.038
[1], x2 = 0.7983	1107.6	1102.7	1097.7	–	–	–	1347	1.149	1.064	0.979
[1], x2 = 0.9012	1047	1042.8	1037.4	–	–	–	1379	1.074	0.994	0.914
[2], x2 = 0	–	–	–	1.4922	1.4894	1.4865	–	–	–	–
[2], x2 = 0.1003	–	–	–	1.4943	1.4915	1.4887	–	–	–	–
[2], x2 = 0.2021	–	–	–	1.4966	1.4937	1.4909	–	–	–	–
[2], x2 = 0.303	–	–	–	1.4989	1.496	1.4931	–	–	–	–
[2], x2 = 0.3939	–	–	–	1.5009	1.498	1.4952	–	–	–	–
[2], x2 = 0.4986	–	–	–	1.5032	1.5005	1.4977	–	–	–	–
[2], x2 = 0.5975	–	–	–	1.5055	1.5028	1.5	–	–	–	–
[2], x2 = 0.6972	–	–	–	1.508	1.5052	1.5023	–	–	–	–
[2], x2 = 0.7983	–	–	–	1.5105	1.5076	1.505	–	–	–	–
[2], x2 = 0.9012	–	–	–	1.5129	1.51	1.5072	–	–	–	–

C[S+](C)[O-] [dimethyl sulfoxide] + COc1ccccc1
x2 = 0
Conditions	mass density, 298.15 K [kg/m3]	mass density, 303.15 K [kg/m3]	mass density, 308.15 K [kg/m3]	refractive index, 298.15 K	refractive index, 303.15 K	refractive index, 308.15 K	speed of sound, 298.15 K [m/s]	viscosity, 298.15 K [mPa·s]	viscosity, 303.15 K [mPa·s]	viscosity, 308.15 K [mPa·s]
[1]	1095.4	1090.8	1086.2	–	–	–	1493	1.984	1.801	1.651
[2]	–	–	–	1.4768	1.4594	1.4547	–	–	–	–

COc1ccccc1 [anisole] + CCOC(=O)C(=O)OCC
x1 = 1
Conditions	mass density, 298.15 K [kg/m3]	mass density, 303.15 K [kg/m3]	mass density, 308.15 K [kg/m3]	refractive index, 298.15 K	refractive index, 303.15 K	refractive index, 308.15 K	speed of sound, 298.15 K [m/s]	viscosity, 298.15 K [mPa·s]	viscosity, 303.15 K [mPa·s]	viscosity, 308.15 K [mPa·s]
[1]	988.9	984.1	979.4	–	–	–	1410	0.992	0.918	0.853
[2]	–	–	–	1.5148	1.5124	1.5092	–	–	–	–

COc1ccccc1 [anisole] + OCCCl
x1 = 1
Conditions	mass density, 298.15 K [kg/m3]	mass density, 303.15 K [kg/m3]	mass density, 308.15 K [kg/m3]	refractive index, 298.15 K	refractive index, 303.15 K	refractive index, 308.15 K	speed of sound, 298.15 K [m/s]	viscosity, 298.15 K [mPa·s]	viscosity, 303.15 K [mPa·s]	viscosity, 308.15 K [mPa·s]
[1]	988.9	984.1	979.4	–	–	–	1410	0.992	0.919	0.853
[2]	–	–	–	1.5148	1.5124	1.5092	–	–	–	–

COc1ccccc1 [anisole] + ClC(Cl)C(Cl)Cl
x1 = 1
Conditions	mass density, 298.15 K [kg/m3]	mass density, 303.15 K [kg/m3]	mass density, 308.15 K [kg/m3]	refractive index, 298.15 K	refractive index, 303.15 K	refractive index, 308.15 K	speed of sound, 298.15 K [m/s]	viscosity, 298.15 K [mPa·s]	viscosity, 303.15 K [mPa·s]	viscosity, 308.15 K [mPa·s]
[1]	988.9	984.1	979.4	–	–	–	1410	0.992	0.919	0.853
[2]	–	–	–	1.5148	1.5124	1.5092	–	–	–	–

C1COCCO1 [1,4-dioxane] + COc1ccccc1
x2 = 0
Conditions	mass density, 298.15 K [kg/m3]	mass density, 303.15 K [kg/m3]	mass density, 308.15 K [kg/m3]	refractive index, 298.15 K	refractive index, 303.15 K	refractive index, 308.15 K	speed of sound, 298.15 K [m/s]	viscosity, 298.15 K [mPa·s]	viscosity, 303.15 K [mPa·s]	viscosity, 308.15 K [mPa·s]
[1]	1028.3	1023.1	1017.8	–	–	–	1345	1.415	1.171	1.068
[2]	–	–	–	1.4181	1.4176	1.4141	–	–	–	–
